# Laboratory results published in patent US20230093766A1, “COMPOSITIONS AND METHODS FOR COATING BONE GRAFTS” (BOARD OF REGENTS OF THE UNIVERSITY OF NEBRASKA, priority 2020, published 2023).
# Columns and labels:
# BMP type I receptor ALK6 = BMP type I receptor ALK6 (Homo sapiens, UniProt O00238); details: cited from earlier work
# fibrosis in lung = details: mouse model; cited from earlier work
# BMP type I receptor ALK2 = target: T1, BMP type I receptor ALK2 (Homo sapiens, UniProt Q04771); details: cited from earlier work
# T1 sequence (Q04771 21-509): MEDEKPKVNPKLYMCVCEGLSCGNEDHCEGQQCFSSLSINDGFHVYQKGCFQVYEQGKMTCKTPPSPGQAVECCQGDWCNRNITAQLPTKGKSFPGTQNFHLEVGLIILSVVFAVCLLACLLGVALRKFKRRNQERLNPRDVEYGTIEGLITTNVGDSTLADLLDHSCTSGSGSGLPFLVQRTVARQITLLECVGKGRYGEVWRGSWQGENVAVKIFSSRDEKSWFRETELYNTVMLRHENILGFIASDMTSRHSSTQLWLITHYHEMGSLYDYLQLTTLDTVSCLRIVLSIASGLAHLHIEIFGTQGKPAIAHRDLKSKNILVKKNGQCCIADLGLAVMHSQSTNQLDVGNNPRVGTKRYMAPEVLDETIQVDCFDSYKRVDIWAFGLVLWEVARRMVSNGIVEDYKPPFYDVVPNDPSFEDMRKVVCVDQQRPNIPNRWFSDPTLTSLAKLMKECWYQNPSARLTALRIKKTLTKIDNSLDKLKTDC
# BMP type I receptor ALK3 = BMP type I receptor ALK3 (Homo sapiens, UniProt P36894); details: cited from earlier work
# Chain of BMP type I receptor ALK3 (P36894 24-532): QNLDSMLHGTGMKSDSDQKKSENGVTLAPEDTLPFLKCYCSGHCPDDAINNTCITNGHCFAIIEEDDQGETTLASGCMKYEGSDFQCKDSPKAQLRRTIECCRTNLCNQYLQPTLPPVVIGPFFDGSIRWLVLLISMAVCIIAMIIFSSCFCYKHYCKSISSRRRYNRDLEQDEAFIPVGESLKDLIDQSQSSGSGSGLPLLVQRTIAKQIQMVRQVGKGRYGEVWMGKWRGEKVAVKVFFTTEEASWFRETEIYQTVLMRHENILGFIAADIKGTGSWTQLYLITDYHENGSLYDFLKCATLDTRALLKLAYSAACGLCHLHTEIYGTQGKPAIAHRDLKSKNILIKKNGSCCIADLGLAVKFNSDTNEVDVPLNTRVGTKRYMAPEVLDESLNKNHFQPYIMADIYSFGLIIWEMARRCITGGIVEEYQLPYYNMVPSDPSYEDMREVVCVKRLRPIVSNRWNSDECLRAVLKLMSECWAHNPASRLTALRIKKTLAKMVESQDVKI
# Tgfbrl/ALK5 kinase = target: T2, Tgfbrl/ALK5 kinase (Homo sapiens, UniProt P36897); details: cited from earlier work
# T2 sequence (P36897 34-503): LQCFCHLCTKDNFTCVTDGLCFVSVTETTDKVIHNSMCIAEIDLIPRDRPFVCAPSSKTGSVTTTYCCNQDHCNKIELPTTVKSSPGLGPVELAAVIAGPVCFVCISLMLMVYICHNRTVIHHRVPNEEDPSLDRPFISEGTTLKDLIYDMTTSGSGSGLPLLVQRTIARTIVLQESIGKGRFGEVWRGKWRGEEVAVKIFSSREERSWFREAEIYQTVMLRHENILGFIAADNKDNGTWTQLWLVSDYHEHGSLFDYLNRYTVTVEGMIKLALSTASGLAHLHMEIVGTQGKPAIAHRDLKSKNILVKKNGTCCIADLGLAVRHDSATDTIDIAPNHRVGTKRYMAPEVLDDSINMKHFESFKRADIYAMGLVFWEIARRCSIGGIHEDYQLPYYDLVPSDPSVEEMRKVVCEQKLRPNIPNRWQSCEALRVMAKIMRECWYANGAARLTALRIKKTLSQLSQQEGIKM
# [1] = system: periosteal progenitor cells isolated from autograft periosteum; test: Osteogenic differentiation of periosteal progenitor cells, BMP-2 in combination with TGF-β inhibitor; type: cell-based
# Experimental: To test the potential reciprocal regulation of both BMP and TGF-β signaling in repair, periosteal progenitor cells were isolated from autograft periosteum (Wang, et al. (2010) Am. J. Pathol., 177:3100-3111; Huang, et al. (2014) Mol. Ther., 22:430-439; Huang, et al. (2014) PLoS One, 9:e100079). The osteogenic differentiation of BMP-2 ([…]) in combination with TGF-β inhibitors was examined. Corilagin (1 μm) potentiated the effects of BMP-2 on osteoblastic differentiation as evidenced by increased alkaline phosphatase (ALP) staining and enhanced expression of ALP and osterix (Osx) in 10-day cultures (FIG. 7).
# normal cells and tissues = details: cited from earlier work
# [2] = system: TGF-β-dependent epithelial-mesenchymal transition (EMT); details: cited from earlier work
# receptors of BMPs = details: cited from earlier work
# [3] = BMP-2 peptide loading and in vitro release from electrospray-coated bone allografts; type: physicochemical; details: from PLGA 50:50 coated allograft, during the first 4 weeks
# Experimental: For quantification of peptide loading and release kinetics, 5 mg FITC labeled BMP-2 peptide was dispersed in 5% (w/v) of PLGA in DCM in glass vials and used for electrospray-mediated allograft coating. The amount of BMP-2 peptide loaded per graft was calculated from the difference in the weights of the bone samples before and after electrospray coating as well as accounting for the polymer:peptide ratio of 50:1 (Boda, et al. (2019) Acta Biomater., 85:282-93). The duration of the electrospray coating was adjusted to achieve an increase of 2-3 mg in the weights of the electrospray coated bone samples as compared to the corresponding uncoated ones. The FITC-labeled peptide release from the bone allograft was recorded by measuring the fluorescence intensities of the buffer aliquots at regular intervals using excitation and emission filters of 485 and 528 nm, respectively.
# Similarly, to measure the peptide loading and release kinetics from PCL-gelatin coated allografts, the PCL-gelatin HFIP solution containing 5 mg FITC labeled BMP-2 peptide was used for coating. PCL-Gelatin (2.5 wt % each) and 5 mg of BMP-2 peptide were mixed by ultrasonication. […] The peptide release from the PCL-gelatin bone allograft was recorded by measuring the fluorescence intensities of the buffer aliquots at regular intervals (Boda, et al. (2019) Acta Biomater., 85:282-93). […]
# [4] = Corilagin (1 μm) with BMP-2 (50 μg/ml), 10-day cultures
# Chain of BMP type I receptor ALK6 (O00238 14-502): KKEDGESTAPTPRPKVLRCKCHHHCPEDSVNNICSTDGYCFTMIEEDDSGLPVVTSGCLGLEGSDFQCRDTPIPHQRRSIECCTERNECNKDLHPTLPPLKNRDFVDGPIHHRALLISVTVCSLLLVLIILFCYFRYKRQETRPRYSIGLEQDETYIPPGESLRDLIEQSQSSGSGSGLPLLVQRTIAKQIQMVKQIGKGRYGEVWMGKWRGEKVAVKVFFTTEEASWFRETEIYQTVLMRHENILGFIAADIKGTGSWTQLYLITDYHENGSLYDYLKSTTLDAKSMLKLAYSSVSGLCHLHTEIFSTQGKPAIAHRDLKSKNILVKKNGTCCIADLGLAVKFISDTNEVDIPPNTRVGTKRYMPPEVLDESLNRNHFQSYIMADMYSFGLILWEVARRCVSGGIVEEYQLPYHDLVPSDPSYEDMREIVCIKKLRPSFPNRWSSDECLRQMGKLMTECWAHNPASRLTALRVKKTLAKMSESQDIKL
Molecule,inhibition of BMP type I receptor ALK6 (BMP type I receptor ALK6),fibrosis in lung (fibrosis in lung),inhibition of BMP type I receptor ALK2 (BMP type I receptor ALK2),inhibition of BMP type I receptor ALK3 (BMP type I receptor ALK3),Tgfbrl/ALK5 kinase activity (Tgfbrl/ALK5 kinase),"alkaline phosphatase (ALP) staining [1, 4]","effects of BMP-2 on osteoblastic differentiation [1, 4]","expression of ALP [1, 4]","expression of osterix (Osx) [1, 4]","synergism with BMP-2 ([1]; FIG. 7, ALP and Osx expression after 10 days)",toxicity toward normal cells and tissues (normal cells and tissues),TGF-β-dependent epithelial-mesenchymal transition (EMT) [2],binding and activation of the receptors of BMPs (receptors of BMPs),loaded peptide released [3]
O=C(O[C@@H]1O[C@@H]2COC(=O)c3cc(O)c(O)c(O)c3-c3c(cc(O)c(O)c3O)C(=O)O[C@H]([C@H]1O)[C@@H]2O)c1cc(O)c(O)c(O)c1 [Corilagin],without inhibiting,attenuates,without inhibiting,without inhibiting,strongly inhibits,increased,potentiated,enhanced,enhanced,strong synergism,low level,inhibits,–,–
KIPKASSVPTELSAISTLYL (BMP-2 peptide) [short-chain BMP-2 mimetic peptide (Genscript)],–,–,–,–,–,–,–,–,–,–,–,–,binds and activates,Nearly all
